Results on 38 compounds are retold here after publication PMC12519464, “Dual-Site Inhibition of SARS-CoV‑2 RNA-Dependent RNA Polymerase by Small Molecules Able to Block Viral Replication Identified through a Computer-Aided Drug Discovery Approach” (ACS Infectious Diseases, 2025).

Each structure is given as a SMILES string.

The target in the first test is SARS-CoV-2 nsp12/7/8 (RTC) complex (Severe acute respiratory syndrome coronavirus 2, UniProt P0DTD1). Kind of test: biochemical. Format: biochemical.
Settings: not given
Turning to `CC(C)=CC/C=C(\C)[C@H]1CC[C@]2(C)[C@@H]1[C@H](O)C[C@@H]1[C@@]3(C)CC[C@H](O[C@@H]4O[C@H](CO)[C@@H](O)[C@H](O)[C@H]4O[C@@H]4O[C@H](CO)[C@@H](O)[C@H](O)[C@H]4O)C(C)(C)[C@@H]3CC[C@]12C` [Ginsenoside Rg5], the IC50 was > 100 µM.

Turning to `C[C@@H]1O[C@@H](O[C@H]2CC[C@]3(C=O)[C@H]4CC[C@]5(C)[C@@H](c6ccc(=O)oc6)CC[C@]5(O)[C@@H]4CC[C@]3(O)C2)[C@H](O)[C@H](O)[C@H]1O[C@@H]1O[C@H](CO)[C@@H](O)[C@H](O)[C@H]1O` [Hellebrin], the IC50 is > 100 µM.

Turning to `C[C@]1(O)C[C@@H](c2nc(-c3ccc4ccc(-c5ccccc5)nc4c3)c3c(N)nccn32)C1` [Linsitinib, reference compound], the IC50 is > 100 µM.

As for `C=C(C)[C@@H]1CC[C@]2(C)CC[C@]3(C)[C@H](CC[C@@H]4[C@@]5(C)CCC(=O)C(C)(C)[C@@H]5CC[C@]43C)[C@@H]12` [Lupenone], the IC50 is > 100 µM.

Consider `C=C(C)[C@@H]1CC[C@]2(C)CC[C@]3(C)[C@H](CC[C@@H]4[C@@]5(C)CC[C@H](O)C(C)(C)[C@@H]5CC[C@]43C)[C@@H]12` [Lupeol], for which the IC50 was > 100 µM.

For the compound `C[C@H]1[C@H](C)CC[C@]2(C(=O)O)CC[C@]3(C)C(=CC[C@@H]4[C@@]5(C)C[C@@H](O)[C@H](O)[C@@](C)(CO)[C@@H]5[C@H](O)C[C@]43C)[C@H]12` [Madecassic Acid], the IC50 is > 100 µM.

As to `CC1(C)CC[C@]2(C(=O)O)CC[C@]3(C)C(=CC[C@@H]4[C@@]5(C)C[C@@H](O)[C@H](O)C(C)(C)[C@@H]5CC[C@]43C)[C@@H]2C1` [Maslinic Acid], the IC50 is > 100 µM.

Consider `CC[C@@]1([C@@H]2O[C@@H]([C@H]3O[C@@](O)(CO)[C@H](C)C[C@@H]3C)C[C@@H]2C)CC[C@H]([C@]2(C)CC[C@]3(C[C@H](O)[C@@H](C)[C@@H]([C@@H](C)[C@@H](OC)[C@H](C)C(=O)O)O3)O2)O1` [Monensin], for which the IC50 is > 100 µM.

With `O=C(c1cccc(-c2nc3ccccc3[nH]2)n1)N1CCN(C(=O)c2cccc(-c3nc4ccccc4[nH]3)n2)CC1` [Omilancor, reference compound], the IC50 was > 100 µM.

With `C=C(CC[C@@H](C(=O)O)[C@H]1[C@H](O)C[C@@]2(C)C3=C(CC[C@]12C)[C@@]1(C)CC[C@H](OC(C)=O)C(C)(C)[C@@H]1CC3)C(C)C` [Pachymic acid], the IC50 was > 100 µM.

Take `C[C@@H]1CC[C@]2(C(=O)O)CC[C@]3(C)C(=CC[C@@H]4[C@@]5(C)CC[C@H](O)C(C)(C)[C@@H]5CC[C@]43C)[C@@H]2[C@]1(C)O` [Pomolic acid]: the IC50 is > 100 µM.

Turning to `CC1(C)CC[C@]2(C(=O)O[C@@H]3O[C@H](CO)[C@@H](O)[C@H](O)[C@H]3O)CC[C@]3(C)C(=CC[C@@H]4[C@@]5(C)CC[C@H](O[C@@H]6O[C@H](C(=O)O)[C@@H](O)[C@H](O)[C@H]6O[C@@H]6OC[C@@H](O)[C@H](O)[C@H]6O)C(C)(C)[C@@H]5CC[C@]43C)[C@@H]2C1` [Pseudoginsenoside Rt1], the IC50 stood at 49.3 ± 5.86 µM.

Regarding `CC1(C)CC[C@]2(C(=O)O)[C@H](O)C[C@]3(C)C(=CC[C@@H]4[C@@]5(C)CC[C@H](O)[C@@](C)(C=O)[C@@H]5CC[C@]43C)[C@@H]2C1` [Quillaic acid], the IC50 was 83.9 ± 9.31 µM.

The same test, now with this note: primer-extension PAGE assay, 150 nM RTC, 5% DMSO, 30 min preincubation at 37 °C; mean and SD of at least 3 independent experiments.
As to `CN1C(=O)c2c(nn(Cc3ccc(-c4cccc(F)n4)cc3)c2Nc2ccccc2)N2C1=N[C@@H]1CCC[C@@H]12` [Lenrispodun, reference compound], the IC50 came to 24.2 ± 8.68 µM.

Consider `CS(=O)(=O)c1cccc(C[C@H](NC(=O)c2c(Cl)cc3c(c2Cl)CCN(C(=O)c2ccc4ccoc4c2)C3)C(=O)O)c1` [Lifitegrast, reference compound], for which the IC50 is > 100 µM.

Turning to `Cc1ccc(F)cc1C(=O)Nc1ccc(C(=O)N2Cc3cccn3Cc3ccccc32)c(Cl)c1` [Lixivaptan, reference compound], the IC50 was > 100 µM.

In the case of `COc1cccc(OC)c1-c1cc(C(=O)NC2(C(=O)O)C3CC4CC(C3)CC2C4)nn1-c1ccnc2cc(Cl)ccc12` (centres unmarked) [Meclinertant, reference compound], the IC50 stood at 15.4 ± 2.77 µM.

As to `Cc1ccc(C(=O)Nc2ccc(Oc3cc4cnn(C)c4cc3-c3cn[nH]c3)c(F)c2)c(=O)n1-c1ccc(F)cc1` [Merestinib, reference compound], the IC50 was > 100 µM.

The compound `CC1(C)CC[C@]2(NC(=O)C(C)(F)F)CC[C@]3(C)[C@H](C(=O)C=C4[C@@]5(C)C=C(C#N)C(=O)C(C)(C)[C@@H]5CC[C@]43C)[C@@H]2C1` [Omaveloxolone, reference compound] yielded an IC50 of 13 ± 4.28 µM.

For `Cc1cnc(C(=O)N[C@H]2CCCCC/C=C\[C@@H]3C[C@@]3(C(=O)NS(=O)(=O)C3CC3)NC(=O)[C@@H]3C[C@@H](Oc4nc5ccccc5c5ccccc45)CN3C2=O)cn1` [Paritaprevir, reference compound], the IC50 worked out at 42.2 ± 9.97 µM.

In the case of `CO[C@H]1/C=C/O[C@@]2(C)Oc3c(C)c(O)c4c(O)c(c5c(nc6cc(C)ccn65)c4c3C2=O)NC(=O)/C(C)=C\C=C\[C@H](C)[C@H](O)[C@@H](C)[C@@H](O)[C@@H](C)[C@H](OC(C)=O)[C@@H]1C` [Rifaximin, reference compound], the IC50 is > 100 µM.

On to `C[C@@H]1CC[C@]2(C(=O)O)CC[C@]3(C)C(=CC[C@@H]4[C@@]5(C)CC[C@H](O)[C@@](C)(CO)[C@@H]5CC[C@]43C)[C@@H]2[C@]1(C)O` [Rotundic acid], for which the IC50 is > 100 µM.

The test is the same for the next values; noted with them: read-out: IC50: compound concentration required to inhibit by 50% the SARS-CoV-2 RTC enzymatic activity.
As to `CC(C)C1=C2[C@H]3CC[C@@H]4[C@@]5(C)CC[C@H](OC(=O)CC(C)(C)C(=O)O)C(C)(C)[C@@H]5CC[C@@]4(C)[C@]3(C)CC[C@@]2([C@@H](O)CN(CCN(C)C)Cc2ccc(Cl)cc2)CC1=O` [Gsk-2838232, reference compound], the IC50 is > 100 µM.

Consider `Cc1ccccc1NC(=O)Nc1ccc(CN2C(=O)N([C@@H](CC(C)C)C(=O)N[C@@H](CC(=O)O)c3ccccc3)C(=O)C2(C)C)cc1` [HMR1031, reference compound], for which the IC50 was 91.2 ± 4.88 µM.

Consider `C[C@H]1CC[C@@H]2N(C1)C[C@H]1[C@@H]3C[C@H]4[C@@H](CC(=O)[C@H]5C[C@@H](O[C@@H]6O[C@H](CO)[C@@H](O)[C@H](O)[C@H]6O)CC[C@@]54C)[C@@H]3CC[C@H]1[C@]2(C)O` [Imperialine 3-beta-D-glucoside], for which the IC50 was > 100 µM.

In the case of `CC(C)=CCc1c(-c2ccc(O)cc2O)oc2c([C@H]3C=C(C)C[C@@H](c4ccc(O)cc4O)[C@@H]3C(=O)c3ccc(O)cc3O)c(O)cc(O)c2c1=O` [Kuwanon G], the IC50 worked out at 41 ± 6.18 µM.

As to `CC(C)=CCc1c(O)ccc(C(=O)[C@@H]2[C@@H](c3c(O)cc(O)c4c(=O)c(CC=C(C)C)c(-c5ccc(O)cc5O)oc34)C=C(C)C[C@H]2c2ccc(O)cc2O)c1O` [Kuwanon H], the IC50 was determined as 66.2 ± 1.81 µM.

Take `C=C(C)[C@@H]1CC[C@]2(C)CC[C@]3(C)[C@H](CC[C@@H]4[C@@]5(C)CC[C@H](OC(C)=O)C(C)(C)[C@@H]5CC[C@]43C)[C@@H]12` [Lupeol Acetate]: the IC50 is > 100 µM.

As to `C[C@H](CC[C@@H](O[C@@H]1O[C@H](CO)[C@@H](O)[C@H](O)[C@H]1O)C(C)(C)O)[C@H]1CC[C@@]2(C)[C@@H]3CC=C4[C@@H](CC[C@H](O[C@@H]5O[C@H](CO)[C@@H](O)[C@H](O)[C@H]5O)C4(C)C)[C@]3(C)[C@H](O)C[C@]12C` [Mogroside IIe], the IC50 is > 100 µM.

In the case of `CC#C/C(=N/OC[C@H]1COCCN1)c1ccc2ncnc(Nc3ccc(OCc4cccc(F)c4)c(Cl)c3)c2c1` [N-[3-chloro-4-[(3-fluorophenyl)methoxy]phenyl]-6-[(E)-N-[[(3R)-morpholin-3-yl]methoxy]-C-prop-1-ynylcarbonimidoyl]quinazolin-4-amine, reference compound], the IC50 is > 100 µM.

For `O=C(NCC(O)CNC(=O)/C(=C\c1ccco1)NC(=O)c1ccccc1)/C(=C\c1ccco1)NC(=O)c1ccccc1` [N-[(E)-3-[[3-[[(E)-2-benzamido-3-(furan-2-yl)prop-2-enoyl]amino]-2-hydroxypropyl]amino]-1-(furan-2-yl)-3-oxoprop-1-en-2-yl]benzamide], the IC50 came out at 90.1 ± 14 µM.

In the case of `CC1(C)CC[C@]2(C(=O)O)CC[C@]3(C)C(=CC[C@@H]4[C@@]5(C)CC[C@H](O[C@@H]6O[C@H](C(=O)O)[C@@H](O[C@@H]7O[C@@H](CO)[C@H](O)[C@H]7O)[C@H](O)[C@H]6O)C(C)(C)[C@@H]5CC[C@]43C)[C@@H]2C1` [Narcissiflorine], the IC50 worked out at 17.2 ± 5.96 µM.

Consider `CC1=C2C[C@H]3[C@@H](CC(=O)[C@H]4C[C@@H](O)CC[C@@]43C)[C@@H]2CC[C@]12O[C@@H]1C[C@H](C)CN[C@H]1[C@H]2C` [Peimisine], for which the IC50 is > 100 µM.

`C[C@@H]1CC[C@@]2(OC1)O[C@H]1C[C@H]3[C@@H]4CC=C5C[C@@H](O[C@@H]6O[C@H](CO)[C@@H](O)[C@H](O)[C@H]6O[C@@H]6O[C@@H](C)[C@H](O)[C@@H](O)[C@H]6O)CC[C@]5(C)[C@H]4CC[C@]3(C)[C@H]1[C@@H]2C` [Prosapogenin A]: the IC50 is > 100 µM.

For `CC(C)(O)[C@H]1CC[C@@](C)([C@H]2CC[C@]3(C)[C@@H]2[C@H](O)C[C@@H]2[C@@]4(C)CC[C@H](O)C(C)(C)[C@@H]4[C@@H](O[C@@H]4O[C@H](CO)[C@@H](O)[C@H](O)[C@H]4O)C[C@]23C)O1` [Pseudoginsenoside Rt5], the IC50 is > 100 µM.

With `C=C(C)[C@@H]1CC[C@]2(C(=O)O)CC[C@]3(C)[C@H](CC[C@@H]4[C@@]5(C)CC[C@H](O[C@@H]6OC[C@H](O)[C@H](O)[C@H]6O[C@@H]6O[C@@H](C)[C@H](O)[C@@H](O)[C@H]6O)[C@@](C)(CO)[C@@H]5CC[C@]43C)[C@@H]12` [Pulchinenoside A], the IC50 is 24.7 ± 0.42 µM.

With `COc1ccc2cc(S(=O)(=O)N[C@H](CC(=O)N[C@H](Cc3ccc(CN4[C@H](C)CCC[C@@H]4C)cc3)C(=O)N(C)C(C)C)c3ccc4c(c3)OCO4)ccc2c1` [SSR240612, reference compound], the IC50 was 85.9 ± 4.35 µM.

With `C[C@H]1O[C@@H](O[C@H]2CC[C@@]3(C)[C@@H](CC[C@]4(C)[C@@H]3C=CC3=C5CC(C)(C)CC[C@]5(CO)[C@H](O)C[C@]34C)[C@]2(C)CO)[C@H](O)[C@@H](O[C@@H]2O[C@H](CO)[C@@H](O)[C@H](O)[C@H]2O)[C@H]1O` [Saikosaponin B2], the IC50 came out at 54.6 ± 13.6 µM.
